Values joined by “and” are separate entries in the source; they are usually repeats but may differ in a detail not shown here. Equal entries are not always repeated.
How the values were obtained:
Type in all cases: in vivo
[1] = test system: hair follicles of CRF-OE mice; assay: Histology of dorsal skin hair follicles (H/E) in CRF-OE mice (Example 3); details: for Hair follicle morphology: H/E-stained skin sections of adult CRF-OE mice; for Skin thickness or hair follicle numbers versus wild type mice: adult CRF-OE mice
From the text: Wild-type (C57BL/6) mice, saline-treated CRF-OE mice, CRF-OE mice treated with astressin B or astressin 2B as described in Example 1 (sc injection), and adult CRF-OE mice treated with astressin 2B as described in Example 2 (ip injection), were euthanized, Male mice were used in each case. Whole dorsal skin pieces were harvested for histology four weeks after the final sc injection of the respective peptides or two weeks after ip astressin B or saline injection.
Skin samples were fixed in 4% paraformaldehyde. Paraffin-embedded sections were processed for staining of hematoxylin/eosin and examined by light microscopy. The thickness of the epidermis plus dermis and depth of hair follicles were measured and the number of hair follicles was counted per unit (a field obtained with 10× objective) in a total of 5 units per section.

CRF-OE mice = assay: Hair growth and skin pigmentation after sc injection in adult alopecic CRF-OE mice (Example 1); details: for Back Hair Growth Score (BK) / Skin pigmentation (Pg) score: score 0-10, individual mice
From the text: Adult (6-9 month old) male and female C57BL/6 mice that overexpress a rat CRF transgene (Stenzel-Poore et al., Endocrinol., 130:3378-3386, 1992) were used in this Example. […] Moreover, these animals display physical changes, such as excess abdominal fat accumulation, muscle atrophy, thin skin, and alopecia on the back and ventral abdomen area. Alopecia in these animals develops after about 7-8 weeks of age and is fully developed at about 4 months of age. This phenotype, i.e., hair loss in adulthood, is similar to that observed in some forms of human alopecia (e.g., the age-dependent balding of adult, human males (and females)).
CRF-OE mice were housed in standard plastic cages in a controlled environment (temperature=21-23° C.; humidity=30-35%; 12-hour light cycle with lights on 06:00 AM) and fed a standard rodent diet (PROLAB™ RMH 2500). Experiments were conducted in accordance with institutional guidelines.
Eight (8) male and 9 female CRF-OE mice were injected subcutaneously with 5 μg/mouse astressin B or astressin 2B, in 0.1 ml sterile water, once per day for 5 consecutive days. Similar doses of astressin B and astressin 2B previously were shown, respectively, to inhibit elevated ACTH release in adrenalectomized rats for over 12 hours (Rivier et al., J. Med. Chem., 42:3175-3182, 1999) and delay gastric emptying for over 6 hours (Rivier et al., J. Med. Chem., 45:4737-4747, 2002). […] CRF-OE mice similarly injected with saline alone were used as negative controls. Astressin B and astressin 2B peptides were synthesized as previously described (Rivier et al., J. Med. Chem., 45:4737-4747, 2002; Gulyas et al., Proc. Natl. Acad. Sci. USA, 92:10575-10579, 1995) and were diluted with sterile water immediately preceding each injection.
It appeared that hair growth (if any) typically was completed by 4 weeks post-treatment.
Hair growth in CRF-OE mice was assessed using the hair growth scale developed by Vegesna et al. […], 2002) modified to account for phenotypic differences between CRF-OE mice. Scores were made visually as well as using photographs of each mouse at a weekly interval. The degree of alopecia varied between individual CRF-OE mice; thus, the percent difference between the amount of hair present in the test area (described below) before and 4 weeks after treatment was converted to a score of 0-10. A zero score corresponded to a no change in the amount of hair in the test area and a score of 10 corresponded to full hair growth in the entire test area. The scale for monitoring hair growth in CRF-OE mice is more particularly described in Table 2.
The area was defined anteriorly by a line joining the front of the ears; posteriorly by a line joining the pelvic girdles; and laterally, between the lines projecting caudally from each ear root.
Pigmentation of the skin (also referred to as skin color) in the test region was also measured because, in C57BL/6 mice, the skin darkens at the onset of hair growth. A pigmentation score from 0-10 was given to each mouse with a score of 0 corresponding to bright pink skin color/pigment in the entire test region, a score of 1-5 corresponding to increasing intensity of a pale greyish color/pigment of skin in the test region, a score of 6-9 corresponding to increasing but non-confluent darker color/pigment of skin in the test region, and a score of 10 corresponding to black pigmentation of the entire test region. Pigmentation was measured one week after the fifth and final injection because changes (if any) in pigmentation are substantially complete by that time.

young CRF-OE mice = assay: Prevention of hair loss in young (not-yet-alopecic) CRF-OE mice, sc injection (Example 4); details: for Skin pigmentation (Pg) score / Ventral Abdomen Hair Score (VAb) / Back Hair Score (BK): sc 5 μg/mouse/day x 5 days, individual mice and group mean; for Skin pigmentation (Pg) score / Ventral Abdomen Hair Score (VAb) / Induction of skin pigmentation / Hair loss / development of alopecia / Back Hair Score (BK): young CRF-OE mice; for Induction of skin pigmentation: first week post injection; for Hair loss / development of alopecia: week 4 to week 16 post treatment
Method: Alopecia in this strain fully develops in adulthood at approximately 12 weeks and older.
Young CRF-OE mice (5-6 weeks old) were treated with astressin B, astressin 2B, or vehicle (saline). Treatments were a single, daily subcutaneous injection (0.1 ml volume) of vehicle alone or 5 μg peptide per mouse for five consecutive days. Pigmentation and hair coverage scores were determined pretreatment and 1, 4, 8 and 16 weeks after the last treatment. Hair growth and pigmentation were determined as described in Examples 1 and 2.

[2] = sc 5 μg/mouse/day x 5 days, adult CRF-OE mice, Week 0 (before injection), female mice
[3] = sc 5 μg/mouse/day x 5 days, adult CRF-OE mice, Week 0 (before injection), male mice
[4] = sc 5 μg/mouse/day x 5 days, adult CRF-OE mice, Week 1 after last injection, female mice
[5] = sc 5 μg/mouse/day x 5 days, adult CRF-OE mice, Week 1 after last injection, male mice
[6] = sc 5 μg/mouse/day x 5 days, adult CRF-OE mice, Week 0 (before injection)
[7] = sc 5 μg/mouse/day x 5 days, adult CRF-OE mice, Week 1 after last injection

(cyclo 30-33)[DPhe12, Nle21,38, Cml27,40, Glu30, Lys33]Ac-h/rCRF9-41 [Astressin B]
Hair follicle morphology [1]: more developed and defined in structure
Skin thickness or hair follicle numbers versus wild type mice [1]: no significant differences
Average depth of hair follicles ([1]; treated adult CRF-OE mice (FIG. 3B, 4 weeks after last sc treatment), not significantly different from wild type): 0.42±0.05 mm
Mice responding with increased pigmentation and hair growth (CRF-OE mice; female CRF-OE mice, 8 out of 9, sc): 89%
Mice responding with increased pigmentation and hair growth (CRF-OE mice; male CRF-OE mice, 4 out of 4, sc): 100%
Back Hair Growth Score (BK) (CRF-OE mice; [2]): 0 (5×) and 1
Skin pigmentation (Pg) score (CRF-OE mice; [2]): 0
Back Hair Growth Score (BK) (CRF-OE mice; [3]): 0 (2×) and 1 (2×)
Skin pigmentation (Pg) score (CRF-OE mice; [3]): 0
Back Hair Growth Score (BK) (CRF-OE mice; [4]): 2 (5×) and 1
Skin pigmentation (Pg) score (CRF-OE mice; [4]): 2 and 8 (2×) and 10 and 0 and 7
Back Hair Growth Score (BK) (CRF-OE mice; [5]): 2 (2×) and 1 (2×)
Skin pigmentation (Pg) score (CRF-OE mice; [5]): 10 (2×) and 7 and 4
Back Hair Growth Score (BK) (CRF-OE mice; sc 5 μg/mouse/day x 5 days, adult CRF-OE mice, Week 4 after last injection, female mice): 2 and 8 (2×) and 9 (2×) and 0
Back Hair Growth Score (BK) (CRF-OE mice; sc 5 μg/mouse/day x 5 days, adult CRF-OE mice, Week 4 after last injection, male mice): 8 and 9 and 7 and 6
Hair growth maintained post treatment (CRF-OE mice; sc, adult CRF-OE mice): at least 4 weeks
Onset of hair growth (CRF-OE mice; sc, adult CRF-OE mice, FIG. 1B): as early as one week after the last injection
Hair growth coverage (CRF-OE mice; sc, range over treated adult CRF-OE mice): 20-90%
Hair growth substantially maintained without subsequent treatment (CRF-OE mice; two adult CRF-OE mice observed for an extended period, post treatment): up to 4 months
Mice with dark pigmentation of the skin (young CRF-OE mice; 1 week after the last injection, fraction of mice): 5/5
Mice with little or less hair loss (as compared to vehicle-treated subjects) (young CRF-OE mice; by 4, 8 and 16 weeks after the last injection, fraction of mice): 4/5
Skin pigmentation (Pg) score (young CRF-OE mice; Before (Week 0)): 0
Ventral Abdomen Hair Score (VAb) (young CRF-OE mice; Week 4): 10
Induction of skin pigmentation (young CRF-OE mice): induced skin pigmentation within one week after the final injection
Hair loss / development of alopecia (young CRF-OE mice): remained protected from developing full alopecia
Hair loss / development of alopecia (young CRF-OE mice; listed as astressin 1): started to lose hair gradually 2 months after treatment

cyclo(31-34)[DPhe11, His12, CαMeLeu13,39, Nle17, Glu31, Lys34]Ac-Sau(8-40) [Astressin 2B, reference compound]
Hair follicle morphology [1]: did not have the normal morphology found in wild-type mice
Skin thickness or hair follicle numbers versus wild type mice [1]: no significant differences
Mice that grew significant amounts of hair (CRF-OE mice; sc 5 μg/mouse/day x 5 days, adult CRF-OE mice): 0%
Back Hair Growth Score (BK) (CRF-OE mice; [6]): 0 (2×) and 5
Skin pigmentation (Pg) score (CRF-OE mice; [6]): 0
Back Hair Growth Score (BK) (CRF-OE mice; [7]): 0
Skin pigmentation (Pg) score (CRF-OE mice; [7]): 1 and 2 (2×)
Back Hair Growth Score (BK) (CRF-OE mice; sc 5 μg/mouse/day x 5 days, adult CRF-OE mice, Week 4 after last injection): 0
Back Hair Score (BK) (young CRF-OE mice; Before (Week 0)): 9
Skin pigmentation (Pg) score (young CRF-OE mice; Before (Week 0)): 0
Back Hair Score (BK) (young CRF-OE mice; Week 1): 9
Ventral Abdomen Hair Score (VAb) (young CRF-OE mice; Week 16): 2.5
Induction of skin pigmentation (young CRF-OE mice): moderate induction of skin pigments
Hair loss / development of alopecia (young CRF-OE mice): lost hair and developed full alopecia
